Results taken from US12268227B2, “Production of flavor concentrates by osmosis” (SYMRISE AG, priority 2017, dated 2025).
Like-named read-outs stand apart in the source and are kept apart here.

Experiments:
[1] = log P (n-octanol/water partition coefficient) of aroma substances; format: physicochemical
Description: [formula] • wherein: • C (n-octanol) is the concentration of the aroma substance in the n-octanol phase; and • C (water) is the concentration of the aroma substance in the water phase. The log K(n-octanol/water) is a dimensionless partition coefficient which indicates the ratio of the concentration of the aroma substance in a two-phase system of n-octanol and water. It is thus a model measure of the polarity or water/fat solubility of the aroma substance. Log P is a common physical parameter and is positive for lipophilic aroma substances and negative for hydrophilic aroma substances. The W parameter is therefore defined as follows: W=log10(SWF)

[2] = Odour threshold concentration in water
Method: The OAV value is defined as a measure of the significance of a specific component in the odour of a sample, for example, a foodstuff. The OAV value is calculated by dividing the concentration of a specific substance in the food (mg/kg) by the concentration threshold value of this substance in the food (mg/kg). If the OAV>1, the concentration of the substance exceeds the odour threshold concentration and the substance then makes a sensorial contribution to the overall profile.
The sensory recovery coefficient (SWF) of an aroma substance is composed of the log P of the aroma substance and the odour threshold concentration of the aroma substance (mg/kg in water) and is defined as follows: […]

CC(=O)C(C)=O [2,3-butanedione]
logP ([1]; read-out: logP): -0.508 | Threshold ([2]; odour threshold concentration): 54 µg/kg in water

CCC(=O)C(C)=O [2,3-pentanedione]
logP ([1]; read-out: logP): 0.159 | Threshold ([2]; odour threshold concentration): 5 µg/kg in water

CCC(C)C=O (stereo not drawn) [2-methylbutyraldehyde]
logP ([1]; read-out: logP): 1.4 | Threshold ([2]; odour threshold concentration): 0.9 µg/kg in water

CC=O [acetaldehyde]
logP ([1]; read-out: logP): -0.182 | Threshold [2]: 63 µg/kg in water

CC(=O)O [acetic acid]
Threshold ([2]; odour threshold concentration): 180000 mg/kg in water

CCCC(=O)O [butyric acid]
Threshold ([2]; odour threshold concentration): 1000 µg/kg in water

CC/C=C\CCO [cis-3-hexenol]
logP ([1]; read-out: logP): 1.44

CCO [ethanol]
Threshold ([2]; odour threshold concentration): 52000 mg/kg in water

CCOC(C)=O [ethyl acetate]
Threshold ([2]; odour threshold concentration): 3120 µg/kg in water

CCCC(=O)OCC [ethyl butanoate]
logP ([1]; read-out: logP): 1.49 | Threshold ([2]; odour threshold concentration): 1 µg/kg in water

CCCCCC(=O)OCC [ethyl hexanoate]
logP ([1]; read-out: logP): 2.41 | Threshold ([2]; odour threshold concentration): 5 µg/kg in water

CCCCC1CCC(=O)O1 (stereo not drawn) [gamma-octalactone]
logP [1]: 2.0901 | Threshold ([2]; odour threshold concentration): 24 µg/kg in water

CC(C)=CCC/C(C)=C/C=O [geranial]
logP ([1]; read-out: logP): 3.19 | Threshold ([2]; odour threshold concentration): 320 µg/kg in water

CCCCCC=O [hexanal]
logP ([1]; read-out: logP): 1.85 | Threshold ([2]; odour threshold concentration): 16 µg/kg in water

CCCCCC(=O)O [hexanoic acid]
logP ([1]; read-out: logP): 1.81 | Threshold ([2]; odour threshold concentration): 3940 µg/kg in water

CCCCCCO [hexanol]
Threshold ([2]; odour threshold concentration): 50 µg/kg in water

C=CC(C)(O)CCC=C(C)C (stereo not drawn) [linalool]
logP ([1]; read-out: logP): 2.74 | Threshold ([2]; odour threshold concentration): 103 µg/kg in water

CO [methanol]
logP ([1]; read-out: logP): -0.358 | Threshold ([2]; odour threshold concentration): 369828 mg/kg in water

CCC=O [propanal]
logP ([1]; read-out: logP): 0.484 | Threshold ([2]; odour threshold concentration): 170 µg/kg in water

CCCO [propanol]
Threshold [2]: 5700 µg/kg in water
